According to patent US20190152962A1, “CYCLOPROPYL DERIVATIVES AS ROR-GAMMA MODULATORS” (CADILA HEALTHCARE LIMITED, priority 2016, published 2019):

What was measured:
full length human RORγt = target: T1, full length human RORγt (Homo sapiens, UniProt P51449); experiment: 5×RORE based luciferase assay; type: cell-based; conditions: COS-7 cells transfected with 5×RORE-Luc and hRORγt, 18-20 h treatment
T1 construct: full length human RORγt together in COS-7 cells; expressed in transfected cells; host or cells: COS-7
T1 sequence (P51449 1-497 isoform P51449-2): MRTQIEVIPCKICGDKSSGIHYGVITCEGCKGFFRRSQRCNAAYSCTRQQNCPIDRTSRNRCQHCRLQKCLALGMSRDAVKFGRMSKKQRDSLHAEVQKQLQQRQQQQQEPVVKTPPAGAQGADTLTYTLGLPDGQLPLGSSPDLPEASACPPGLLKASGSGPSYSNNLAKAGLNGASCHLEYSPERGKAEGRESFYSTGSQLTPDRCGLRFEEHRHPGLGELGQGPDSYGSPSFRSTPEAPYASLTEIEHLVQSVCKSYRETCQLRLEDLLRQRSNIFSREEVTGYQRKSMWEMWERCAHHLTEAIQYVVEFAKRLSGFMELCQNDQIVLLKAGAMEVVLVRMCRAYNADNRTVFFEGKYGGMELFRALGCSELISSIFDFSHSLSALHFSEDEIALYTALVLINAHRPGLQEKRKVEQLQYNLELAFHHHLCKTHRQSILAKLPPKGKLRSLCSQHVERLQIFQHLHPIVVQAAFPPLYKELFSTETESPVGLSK
Method: Human RORγt (hRORγt) inhibitors were screened in RORE (RORγt Response Element) based Luciferase assay by transient transfection of 5×RORE (5 tandem repeats of RORγt Response Element) and full length human RORγt together in COS-7 cells. COS-7 cells were maintained as monolayer in complete DMEM (High Glucose) medium in presence of 2 mM Glutamin and 1× Sodium Pyruvate. Day before transfection, 15000 cells were seeded in 96 well cell culture plate in 100 μl antibiotic free medium and incubated at 37° C. in 5% CO2 containing humidified chamber O/N. Prior to transfection, cells were fed with fresh complete growth medium and incubated until the addition of transfection complex. Transfection complex for the required numbers of wells were prepared from pGL2-promoter-5×RORE-Luc plasmid, pcDNA3.1 (+)-hRORγt expression plasmid, pβ-GAL plasmid (transfection control), and Lipofectamine 3000 (Invitrogen). 50 μl of transfection complex were added in 100 μl of complete medium to respective wells, mixed gently and plate was incubated for 5-6 h at 37° C. in 5% CO2 containing humidified chamber. After 5 h of transfection, content of the wells were aspirated and cells were treated with increasing concentration of RORγt inverse agonist in medium devoid of serum with a final DMSO concentration of 0.2% for 18-20 h at 37° C. in 5% CO2 containing humidified chamber. Next day, cells were lysed and the lysates were assayed for luciferase and β-GAL activity using Promega's luciferase assay system and an in-house made β-GAL assay buffer respectively. Luciferase signals were normalized with β-GAL and % activity was determined with respect to that of 10 nM control ligand.
IC50 of selected compounds were then determined by nonlinear regression analysis of % activity, plotted against compound concentration (Table 4).

[1] = test system: secreted IL-17 in peripheral blood mononuclear cells (PBMCs); experiment: Human IL-17 inhibition assay; type: cell-based; conditions: PBMC, anti-CD3/anti-CD28, 72 h, read-out: IL17 IC50
Method: Peripheral blood mononuclear cells (PBMCs) were isolated from healthy volunteers and subjected to T cell polarization assay. Two million PBMCs were placed on anti-CD3 (Biolegend, US) coated 96-well plates and 1 μg/mL of anti-CD28 (Biolegend, US) was added along with RORγt inhibitors or the vehicle control and incubated at 37° C. and 5% CO2 for 72 h. At the end of incubation time, the supernatant was collected and analyzed for secreted IL-17 using sandwich enzyme immunoassay (Mabtech AB, Sweden). The results were analyzed using Graphpad Prism and the half-maximal inhibitory concentrations (IC50) of the test compounds were derived (Table 4).

SMILES | IC50 (full length human RORγt) [µM] | IC50 [1] [µM]
CCS(=O)(=O)c1ccc(CC(=O)Nc2cc(Cl)c(C3(c4noc(C5CC5)n4)CC3)c(Cl)c2)cc1 [Example 25, N-(3,5-dichloro-4-(1-(5-cyclopropyl-1,2,4-oxadiazol-3-yl)cyclopropyl)phenyl)-2-(4-(ethylsulfonyl)phenyl)acetamide] | 0.0015 | 0.014
CCS(=O)(=O)c1ccc(CC(=O)Nc2cc(Cl)c(C3(c4noc(C5CC(F)(F)C5)n4)CC3)c(Cl)c2)cc1 [Example 26, N-(3,5-dichloro-4-(1-(5-(3,3-difluorocyclobutyl)-1,2,4-oxadiazol-3-yl)cyclopropyl)phenyl)-2-(4-(ethylsulfonyl)phenyl)acetamide] | 0.0025 | 0.0073
CCS(=O)(=O)c1ccc(CC(=O)Nc2cc(Cl)c(C3(c4noc(C5CCOCC5)n4)CC3)c(Cl)c2)cc1 [Example 27, N-(3,5-dichloro-4-(1-(5-(tetrahydro-2H-pyran-4-yl)-1,2,4-oxadiazol-3-yl)cyclopropyl)phenyl)-2-(4-(ethylsulfonyl)phenyl)acetamide] | 0.013 | 0.0108
CCS(=O)(=O)c1ccc(CC(=O)Nc2cc(F)c(C3(c4noc(-c5ccc(F)cc5)n4)CC3)c(F)c2)cc1 [Example 28, N-(3,5-difluoro-4-(1-(5-(4-fluorophenyl)-1,2,4-oxadiazol-3-yl)cyclopropyl)phenyl)-2-(4-(ethylsulfonyl)phenyl)acetamide] | 0.0058 | 0.0416
CCS(=O)(=O)c1ccc(CC(=O)Nc2cc(F)c(C3(c4noc(-c5ccc(F)cc5)n4)CC3)c(Cl)c2)cc1 [Example 29, N-(3-chloro-5-fluoro-4-(1-(5-(4-fluorophenyl)-1,2,4-oxadiazol-3-yl)cyclopropyl)phenyl)-2-(4-(ethylsulfonyl)phenyl)acetamide] | 0.0194 | 0.019
CCS(=O)(=O)c1ccc(CC(=O)Nc2cc(F)c(C3(c4noc(-c5ccc(C(F)(F)F)cc5)n4)CC3)c(Cl)c2)cc1 [Example 31, N-(3-chloro-5-fluoro-4-(1-(5-(4-(trifluoromethyl)phenyl)-1,2,4-oxadiazol-3-yl)cyclopropyl)phenyl)-2-(4-(ethylsulfonyl)phenyl)acetamide] | 0.0126 | 0.05
CCS(=O)(=O)c1ccc(CC(=O)Nc2cc(F)c(C3(c4noc(-c5ccc(C#N)cc5)n4)CC3)c(Cl)c2)cc1 [Example 32, N-(3-chloro-4-(1-(5-(4-cyanophenyl)-1,2,4-oxadiazol-3-yl)cyclopropyl)-5-fluorophenyl)-2-(4-(ethylsulfonyl)phenyl)acetamide] | 0.00596 | 0.018
CCS(=O)(=O)c1ccc(CC(=O)Nc2cc(C)c(C3(c4noc(-c5ccc(F)cc5)n4)CC3)c(C)c2)cc1 [Example 33, 2-(4-(ethylsulfonyl)phenyl)-N-(4-(1-(5-(4-fluorophenyl)-1,2,4-oxadiazol-3-yl)cyclopropyl)-3,5-dimethylphenyl)acetamide] | 0.0202 | 0.024
CCS(=O)(=O)c1ccc(CC(=O)Nc2cc(Cl)c(C3(c4nc(-c5ccc(F)cc5)no4)CC3)c(Cl)c2)cc1 [Example 35, N-(3,5-dichloro-4-(1-(3-(4-fluorophenyl)-1,2,4-oxadiazol-5-yl)cyclopropyl)phenyl)-2-(4-(ethylsulfonyl)phenyl)acetamide] | 0.0023 | 0.012
CCS(=O)(=O)c1ccc(CC(=O)Nc2cc(Cl)c(C3(c4nc5ccc(F)cc5o4)CC3)c(Cl)c2)cc1 [Example 36, N-(3,5-dichloro-4-(1-(6-fluorobenzo[d]oxazol-2-yl)cyclopropyl)phenyl)-2-(4-(ethylsulfonyl)phenyl)acetamide] | 0.00244 | 0.019
CCS(=O)(=O)c1ccc(CC(=O)Nc2cc(Cl)c(C3(c4ncc(-c5ccc(F)cc5)o4)CC3)c(Cl)c2)cc1 [Example 38, N-(3,5-dichloro-4-(1-(5-(4-fluorophenyl)oxazol-2-yl)cyclopropyl)phenyl)-2-(4-(ethylsulfonyl)phenyl)acetamide] | 0.0015 | 0.023
CCS(=O)(=O)c1ccc(CC(=O)Nc2cc(Cl)c(C3(c4ncc(-c5ccc(Cl)cc5)o4)CC3)c(Cl)c2)cc1 [Example 39, N-(3,5-dichloro-4-(1-(5-(4-chlorophenyl)oxazol-2-yl)cyclopropyl)phenyl)-2-(4-(ethylsulfonyl)phenyl)acetamide] | 0.0225 | 0.022
CCS(=O)(=O)c1ccc(CC(=O)Nc2cc(Cl)c(C3(c4noc(-c5ccc(F)cc5)n4)CC3)c(Cl)c2)nc1 [Example 41, N-(3,5-dichloro-4-(1-(5-(4-fluorophenyl)-1,2,4-oxadiazol-3-yl)cyclopropyl)phenyl)-2-(5-(ethylsulfonyl)pyridin-2-yl)acetamide] | 0.00076 | 0.0155
CCS(=O)(=O)c1ccc(CC(=O)Nc2cc(Cl)c(C3(c4noc(-c5ccc(F)c(F)c5)n4)CC3)c(Cl)c2)nc1 [Example 44, N-(3,5-dichloro-4-(1-(5-(3,4-difluorophenyl)-1,2,4-oxadiazol-3-yl)cyclopropyl)phenyl)-2-(5-(ethylsulfonyl)pyridin-2-yl)acetamide] | 0.0103 | 0.043
CCS(=O)(=O)c1ccc(CC(=O)Nc2cc(Cl)c(C3(c4noc(-c5ccc(F)cc5Cl)n4)CC3)c(Cl)c2)nc1 [Example 46, N-(3,5-dichloro-4-(1-(5-(2-chloro-4-fluorophenyl)-1,2,4-oxadiazol-3-yl)cyclopropyl)phenyl)-2-(5-(ethylsulfonyl)pyridin-2-yl)acetamide] | 0.0129 | 0.0171
CCS(=O)(=O)c1ccc(CC(=O)Nc2cc(Cl)c(C3(c4noc(-c5ccc(F)c(Cl)c5)n4)CC3)c(Cl)c2)nc1 [Example 47, N-(3,5-dichloro-4-(1-(5-(3-chloro-4-fluorophenyl)-1,2,4-oxadiazol-3-yl)cyclopropyl)phenyl)-2-(5-(ethylsulfonyl)pyridin-2-yl)acetamide] | 0.0101 | 0.0179
CCS(=O)(=O)c1ccc(CC(=O)Nc2cc(Cl)c(C3(c4noc(-c5ccc(Cl)c(Cl)c5)n4)CC3)c(Cl)c2)nc1 [Example 48, N-(3,5-dichloro-4-(1-(5-(3,4-dichlorophenyl)-1,2,4-oxadiazol-3-yl)cyclopropyl)phenyl)-2-(5-(ethylsulfonyl)pyridin-2-yl)acetamide] | 0.0105 | 0.0389
CCS(=O)(=O)c1ccc(CC(=O)Nc2cc(Cl)c(C3(c4noc(-c5ccc(Cl)cc5Cl)n4)CC3)c(Cl)c2)nc1 [Example 49, N-(3,5-dichloro-4-(1-(5-(2,4-dichlorophenyl)-1,2,4-oxadiazol-3-yl)cyclopropyl)phenyl)-2-(5-(ethylsulfonyl)pyridin-2-yl)acetamide] | 0.0047 | 0.017
CCS(=O)(=O)c1ccc(CC(=O)Nc2cc(Cl)c(C3(c4noc(-c5ccc(Cl)cc5)n4)CC3)c(Cl)c2)nc1 [Example 50, N-(3,5-dichloro-4-(1-(5-(4-chlorophenyl)-1,2,4-oxadiazol-3-yl)cyclopropyl)phenyl)-2-(5-(ethylsulfonyl)pyridin-2-yl)acetamide] | 0.0145 | 0.03
CCS(=O)(=O)c1ccc(CC(=O)Nc2cc(Cl)c(C3(c4noc(-c5cccc(Cl)c5)n4)CC3)c(Cl)c2)nc1 [Example 51, N-(3,5-dichloro-4-(1-(5-(3-chlorophenyl)-1,2,4-oxadiazol-3-yl)cyclopropyl)phenyl)-2-(5-(ethylsulfonyl)pyridin-2-yl)acetamide] | 0.0121 | 0.016
